The experiment concerns the target T1, OfurOR27 (Ostrinia furnacalis, UniProt A0A0E4B5I0).
T1 construct: gene OR27; full-length ORF (402 amino acids); with OfurOrco (OfurOR2)
T1 sequence (A0A0E4B5I0 1-401): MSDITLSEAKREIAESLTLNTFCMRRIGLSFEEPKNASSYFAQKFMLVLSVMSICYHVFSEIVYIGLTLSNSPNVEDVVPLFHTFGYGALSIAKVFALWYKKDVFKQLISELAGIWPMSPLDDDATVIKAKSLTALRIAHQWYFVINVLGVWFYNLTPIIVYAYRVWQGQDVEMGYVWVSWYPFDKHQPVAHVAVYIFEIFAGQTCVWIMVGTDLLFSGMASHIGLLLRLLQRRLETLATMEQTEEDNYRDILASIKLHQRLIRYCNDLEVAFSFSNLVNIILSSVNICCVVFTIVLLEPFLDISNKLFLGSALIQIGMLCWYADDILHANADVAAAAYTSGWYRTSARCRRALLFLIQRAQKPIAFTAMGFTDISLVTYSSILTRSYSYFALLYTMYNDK
T1 sequence (A0A0E4B591 1-474 partner): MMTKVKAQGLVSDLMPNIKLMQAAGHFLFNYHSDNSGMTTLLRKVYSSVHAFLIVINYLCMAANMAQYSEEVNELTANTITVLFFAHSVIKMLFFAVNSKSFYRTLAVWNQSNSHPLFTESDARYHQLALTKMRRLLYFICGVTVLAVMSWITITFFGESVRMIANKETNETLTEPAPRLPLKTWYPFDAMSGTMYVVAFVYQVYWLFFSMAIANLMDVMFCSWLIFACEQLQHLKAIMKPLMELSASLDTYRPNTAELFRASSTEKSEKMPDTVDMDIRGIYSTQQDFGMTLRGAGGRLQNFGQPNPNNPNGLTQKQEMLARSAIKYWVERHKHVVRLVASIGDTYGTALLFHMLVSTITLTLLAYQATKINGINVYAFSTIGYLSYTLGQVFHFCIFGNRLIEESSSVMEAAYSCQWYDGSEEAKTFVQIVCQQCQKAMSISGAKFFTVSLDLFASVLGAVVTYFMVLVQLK
As to the kind of experiment: two-electrode voltage clamp in Xenopus oocytes co-expressing OfurOR27/OfurOrco, dose-response. In kind it is cell-based.
Regarding `CCCCCCCCO` [1-octanol], the EC50 was 14100 nM.

For the compound `CCCCCCCCC=O` [nonanal], it took 367 nM to reach a half-maximal effect (EC50). This EC50 is about 38-fold lower than that of the compound before.

In turn, `CCCCCCCC=O` [octanal] had an EC50 of 1180 nM. Compared with the last compound, the EC50 is about 3.2-fold higher.

These data come from PMC7083148, “Identification of a General Odorant Receptor for Repellents in the Asian Corn Borer Ostrinia furnacalis” (Frontiers in Physiology, 2020).
